Laboratory results taken from ChEMBL document CHEMBL5512632, “Unlocking the potential of 1,4-naphthoquinones: A comprehensive review of their anticancer properties” (Eur J Med Chem, 2024).
pIC50: −log10 of the molar value. ≈ marks a conversion by molar mass, not a printed value.

Columns and labels:
[1] = system: A2780; assay: Antiproliferative activity against human A2780 cells assessed as inhibition of cell growth incubated for 24 hrs by MTT assay; type: functional, cell-based; conditions: A2780, 24 h
[2] = system: MDA-MB-231; assay: Antiproliferative activity against human MDA-MB-231 cells assessed as inhibition of cell growth incubated for 24 hrs by MTT assay; type: functional, cell-based; conditions: MDA-MB-231, 24 h
[3] = system: NCI-H460; assay: Antiproliferative activity against human NCI-H460 cells assessed as inhibition of cell growth incubated for 24 hrs by MTT assay; type: functional, cell-based; conditions: NCI-H460, 24 h
[4] = system: MCF7; assay: Antiproliferative activity against human MCF7 cells; type: functional, cell-based
[5] = system: NCI-H187; assay: Antiproliferative activity against human NCI-H187 cells; type: functional, cell-based
[6] = system: MDA-MB-231; assay: Cytotoxicity against human MDA-MB-231 cells incubated for 48 hrs by MTT assay; type: functional, cell-based; conditions: MDA-MB-231, 48 h
[7] = system: HCT-116; assay: Cytotoxicity against human HCT-116 cells incubated for 48 hrs by MTT assay; type: functional, cell-based; conditions: HCT-116, 48 h
[8] = system: Bel-7402; assay: Cytotoxicity against human Bel-7402 cells incubated for 48 hrs by MTT assay; type: functional, cell-based; conditions: Bel-7402, 48 h
[9] = system: HCT-15; assay: Cytotoxicity against human HCT-15 cells incubated for 48 hrs by MTT assay; type: functional, cell-based; conditions: HCT-15, 48 h
[10] = system: MDA-MB-231; assay: Antiproliferative activity against human MDA-MB-231 cells assessed as inhibition of cell growth incubated for 72 hrs by trypan blue exclusion assay; type: functional, cell-based; conditions: MDA-MB-231, 72 h
[11] = system: HT-29; assay: Antiproliferative activity against human HT-29 cells assessed as inhibition of cell growth incubated for 72 hrs by MTT assay; type: functional, cell-based; conditions: HT-29, 72 h
[12] = system: MCF7; assay: Antiproliferative activity against human MCF7 cells assessed as inhibition of cell growth incubated for 72 hrs by MTT assay; type: functional, cell-based; conditions: MCF7, 72 h
[13] = system: MOLT-4; assay: Antiproliferative activity against human MOLT-4 cells assessed as inhibition of cell growth incubated for 72 hrs by MTT assay; type: functional, cell-based; conditions: MOLT-4, 72 h
[14] = system: THP-1; assay: Antiproliferative activity against human THP-1 cells assessed as inhibition of cell growth; type: functional, cell-based
[15] = system: K562; assay: Antiproliferative activity against human K562 cells assessed as inhibition of cell growth; type: functional, cell-based
[16] = system: HCT-116; assay: Antiproliferative activity against human HCT-116 cells assessed as inhibition of cell growth incubated for 72 hrs by MTT assay; type: functional, cell-based; conditions: HCT-116, 72 h
[17] = system: Jurkat; assay: Antiproliferative activity against human Jurkat cells assessed as inhibition of cell growth incubated for 72 hrs by MTT assay; type: functional, cell-based
[18] = Antiproliferative activity against human KB-ChR-8-5-11 cells assessed as inhibition of cell growth incubated for 72 hrs by MTT assay; type: functional, cell-based; conditions: KB-ChR-8-5-11, 72 h
[19] = system: J774.2; assay: Antiproliferative activity against mouse J774.2 cells assessed as inhibition of cell growth incubated for 72 hrs by MTT assay; type: functional, cell-based; conditions: J774.2, 72 h
[20] = system: THP-1; assay: Antiproliferative activity against human THP-1 cells assessed as inhibition of cell growth incubated for 72 hrs by MTT assay; type: functional, cell-based; conditions: THP-1, 72 h
[21] = system: HepG2; assay: Antiproliferative activity against human HepG2 cells assessed as inhibition of cell growth incubated for 72 hrs by MTT assay; type: functional, cell-based; conditions: HepG2, 72 h
[22] = system: KB; assay: Antiproliferative activity against human KB cells assessed as inhibition of cell growth incubated for 72 hrs by MTT assay; type: functional, cell-based
[23] = system: SiHa; assay: Antiproliferative activity against human SiHa cells; type: functional, cell-based
[24] = system: MDA-MB-435; assay: Antiproliferative activity against human MDA-MB-435 cells assessed as inhibition of cell growth incubated for 72 hrs by MTT assay; type: functional, cell-based; conditions: MDA-MB-435, 72 h
[25] = system: PC-3M; assay: Antiproliferative activity against human PC-3M cells assessed as inhibition of cell growth incubated for 72 hrs by MTT assay; type: functional, cell-based
[26] = system: HL-60; assay: Antiproliferative activity against human HL-60 cells assessed as inhibition of cell growth incubated for 72 hrs by MTT assay; type: functional, cell-based; conditions: HL-60, 72 h
[27] = system: HCT-8; assay: Antiproliferative activity against human HCT-8 cells assessed as inhibition of cell growth incubated for 72 hrs by MTT assay; type: functional, cell-based; conditions: HCT-8, 72 h
[28] = system: OVCAR-8; assay: Antiproliferative activity against human OVCAR-8 cells assessed as inhibition of cell growth incubated for 72 hrs by MTT assay; type: functional, cell-based; conditions: OVCAR-8, 72 h
[29] = system: SF-295; assay: Antiproliferative activity against human SF-295 cells assessed as inhibition of cell growth incubated for 72 hrs by MTT assay; type: functional, cell-based; conditions: SF-295, 72 h
[30] = Antiproliferative activity against human NCI-H358M cells assessed as inhibition of cell growth incubated for 72 hrs by MTT assay; type: functional, cell-based
[31] = system: A549; assay: Antiproliferative activity against human A549 cells assessed as inhibition of cell growth incubated for 48 hrs by MTT assay; type: functional, cell-based; conditions: A549, 48 h
[32] = Antiproliferative activity against human NCI-H322T cells assessed as inhibition of cell growth incubated for 48 hrs by MTT assay; type: functional, cell-based
[33] = system: HeLa; assay: Antiproliferative activity against human HeLa cells assessed as inhibition of cell growth incubated for 24 hrs by MTT assay; type: functional, cell-based
[34] = system: MCF7; assay: Antiproliferative activity against human MCF7 cells assessed as inhibition of cell growth incubated for 24 hrs by MTT assay; type: functional, cell-based; conditions: MCF7, 24 h
[35] = system: HepG2; assay: Antiproliferative activity against human HepG2 cells assessed as inhibition of cell growth incubated for 24 hrs by MTT assay; type: functional, cell-based; conditions: HepG2, 24 h
[36] = system: LOX IMVI; assay: Antiproliferative activity against human LOX IMVI cells assessed as inhibition of cell growth incubated for 24 to 48 hrs by SRB assay; type: functional, cell-based
[37] = system: HL-60; assay: Antiproliferative activity against human HL-60 cells assessed as inhibition of cell growth incubated for 72 hrs by MTT reagent based spectral analysis; type: functional; conditions: HL-60, 72 h

O=C1C=C(SCCO)C(=O)c2ccccc21
pIC50 [1]: 5.43
pIC50 [2]: 4.80
pIC50 [3]: 5.37

O=C(/C=C/C=C/c1ccc2c(c1)OCO2)OC1=CC(=O)c2ccccc2C1=O
pIC50 [4]: 5.42
pIC50 [5]: 5.65

C=CC(C)(C)C(OCCCCCCO)c1cc(OC)c2c(c1OC)/C(=N\O)C=C/C2=N\O (stereo not given)
pIC50 [6]: 5.07
pIC50 [7]: 4.63
pIC50 [8]: 5.19
pIC50 [9]: 4.52

COC1=CC(=O)c2ccccc2C1=O [2-Methoxy-1,4-naphthoquinone]
pIC50 [10]: 5.12

Cc1ccc(Cn2cc(CNC3=CC(=O)c4ccccc4C3=O)nn2)cc1
pIC50 [11]: 5.17
pIC50 [12]: 4.98
pIC50 [13]: 5.08

CCNC1=CC(=O)c2ccccc2C1=O
pIC50 [14]: 4.64
pIC50 [15]: 4.11

O=C1C2=C(C(=O)c3ccccc31)C(CCc1ccccc1)c1sc(=O)[nH]c1S2 (stereo not given)
pIC50 [16]: 5.20
pIC50 [17]: 6.12
pIC50 [18]: 4.89
pIC50 [12]: 5.05
pIC50 [19]: 5.02
pIC50 [20]: 5.10

O=C1OCC2=C1C(c1ccc(Oc3ccc(F)cc3)cc1)C1=C(N2)C(=O)c2ccccc2C1=O (stereo not given)
pIC50 [21]: 5.98
pIC50 [12]: 5.67
pIC50 [22]: 6.22

O=C(Nc1ccc(S(=O)(=O)c2ccc3[nH]c4c(c3c2)C(=O)c2ccccc2C4=O)cc1)c1cc([N+](=O)[O-])cc([N+](=O)[O-])c1
IC50 [23]: 20 µg/mL (≈ 33.5 µM)

C[C@H](NC1=CC(=O)c2ccccc2C1=O)C(=O)O
pIC50 [24]: 5.70
pIC50 [25]: 5.18
pIC50 [16]: 5.34
pIC50 [26]: 5.37
pIC50 [27]: 5.47
pIC50 [28]: 5.02
pIC50 [29]: 5.59
pIC50 [30]: 5.47

N#Cc1ccccc1-n1cc(COc2cccc3c2C(=O)C=CC3=O)nn1
pIC50 [31]: 5.33
pIC50 [32]: 5.10

O=C1C=C(SCCC(=O)N2CCN(c3ccccc3F)CC2)C(=O)c2ccccc21
pIC50 [33]: 4.89
pIC50 [34]: 4.79
pIC50 [35]: 4.73

COc1cc(C2C3=C(Sc4[nH]c(=O)sc42)C(=O)c2ccccc2C3=O)ccc1O (stereo not given)
pIC50 [36]: 6.80

CSc1ccc(-c2c(-c3ccc(SC)cc3)n3c4c(c(-c5ccc(SC)cc5)c3c3ccc(SC)cc23)C(=O)c2ccccc2C4=O)cc1
pIC50 [37]: 5.53
